Results published in patent US6403534B1, “Uracil compounds and use thereof” (Sumitomo Chemical Company, Limited, priority 2000, dated 2002).

Tests used:
velvetleaf [1] = test: Test Example 2: soil surface treatment of field; type: in vivo, Abutilon theophrasti; settings: soil surface spray, 500 g/ha, examined 19 days after application
Text: (§1) Test for Soil Surface Treatment of Field
(§2) A cylindrical plastic pot having a diameter of 10 cm and a depth of 10 cm was filled with soil and then seeded with barnyardgrass, blackgrass, ivyleaf morningglory and velvetleaf. Then, each of compounds 1-2, 1-3, 1-7, 1-19 and 1-28 was formulated into an emulsifiable concentrate according to Formulation Example 2 and then diluted to the prescribed amount with water, and the dilution was uniformly sprayed over the surface of the soil with a sprayer at a rate of 1000 liters per hectare. After the application, the test plants were grown in the greenhouse for 19 days, and the herbicidal activity was examined.

ivyleaf morningglory [2] = test: Test Example 2: soil surface treatment of field; type: in vivo, Ipomoea hederacea; settings: soil surface spray, 500 g/ha, examined 19 days after application
Text: as §1, §2

barnyardgrass [3] = test: Test Example 2: soil surface treatment of field; type: in vivo, Echinochloa crus-galli; settings: soil surface spray, 500 g/ha, examined 19 days after application
Text: as §1, §2

blackgrass [4] = test: Test Example 2: soil surface treatment of field; type: in vivo, Alopecurus myosuroides; settings: soil surface spray, 500 g/ha, examined 19 days after application
Text: as §1, §2

barnyardgrass [5] = test: Test Example 1: foliar treatment of field; type: in vivo, Echinochloa crus-galli; settings: foliar spray, 125 g/ha, plants grown 14 days before, examined 16 days after application
Procedure: (§3) Test for Foliar Treatment of Field
as §2, with “and velvetleaf These test plants were grown in a greenhouse for 14 days.” for “and velvetleaf.”, “with water containing a spreading agent” for “with water,”, “the foliage” for “the surface”, “the test plants” for “the soil”, “for 16” for “for 19”, “was determined.” for “was examined.”

velvetleaf [6] = test: Test Example 1: foliar treatment of field; type: in vivo, Abutilon theophrasti; settings: foliar spray, 125 g/ha, plants grown 14 days before, examined 16 days after application
Procedure: as §3
as §2, with “and velvetleaf These test plants were grown in a greenhouse for 14 days.” for “and velvetleaf.”, “with water containing a spreading agent” for “with water,”, “the foliage” for “the surface”, “the test plants” for “the soil”, “for 16” for “for 19”, “was determined.” for “was examined.”

blackgrass [7] = test: Test Example 1: foliar treatment of field; type: in vivo, Alopecurus myosuroides; settings: foliar spray, 125 g/ha, plants grown 14 days before, examined 16 days after application
Procedure: as §3
as §2, with “and velvetleaf These test plants were grown in a greenhouse for 14 days.” for “and velvetleaf.”, “with water containing a spreading agent” for “with water,”, “the foliage” for “the surface”, “the test plants” for “the soil”, “for 16” for “for 19”, “was determined.” for “was examined.”

barnyardgrass [8] = test: Test Example 4: soil surface treatment of field; type: in vivo, Echinochloa crus-galli; parameters: key: “0” means that there was no or little difference in the degree of germination or growth between the treated and the untreated tested plants at the time of examination; “10” means that the test plants died completely or their germination or growth was completely inhibited; settings: index 0 to 10, 12 days after application
Text: (§4) Test for Soil Surface Treatment of Field A plastic pot having an area of (26.5×19) cm^2 and a depth of 7 cm was filled with soil and then seeded with ivyleaf morningglory, velvetleaf, barnyardgrass and giant foxtail. Then, each of the test compounds was formulated into an emulsifiable concentrate according to Formulation Example 2 and then diluted to the prescribed amount with water, and the dilution was uniformly sprayed over the surface of the soil with a sprayer at a rate of 1000 liters per hectare. After the application, the test plants were grown in the greenhouse for 12 days, and the herbicidal activity was examined. The herbicidal activity was evaluated by the same method as in Test Example 3.

ivyleaf morningglory [9] = test: Test Example 1: foliar treatment of field; type: in vivo, Ipomoea hederacea; settings: foliar spray, 125 g/ha, plants grown 14 days before, examined 16 days after application
Procedure: as §3
as §2, with “and velvetleaf These test plants were grown in a greenhouse for 14 days.” for “and velvetleaf.”, “with water containing a spreading agent” for “with water,”, “the foliage” for “the surface”, “the test plants” for “the soil”, “for 16” for “for 19”, “was determined.” for “was examined.”

giant foxtail = test: Test Example 4: soil surface treatment of field; type: in vivo, Setaria faberi; parameters: key: “0” means that there was no or little difference in the degree of germination or growth between the treated and the untreated tested plants at the time of examination; “10” means that the test plants died completely or their germination or growth was completely inhibited; settings: index 0 to 10, 12 days after application
Text: as §4

ivyleaf morningglory [10] = test: Test Example 4: soil surface treatment of field; type: in vivo, Ipomoea hederacea; parameters: key: “0” means that there was no or little difference in the degree of germination or growth between the treated and the untreated tested plants at the time of examination; “10” means that the test plants died completely or their germination or growth was completely inhibited; settings: index 0 to 10, 12 days after application
Text: as §4

ivyleaf morningglory [11] = test: Test Example 3: foliar treatment of field; type: in vivo, Ipomoea hederacea; parameters: key: “0” means that there was no or little difference in the degree of germination or growth between the treated and the untreated tested plants at the time of examination; “10” means that the test plants died completely or their germination or growth was completely inhibited; settings: index 0 to 10, 16 days after application
Procedure: (§5) Test for Foliar Treatment of Field A cylindrical plastic pot having a diameter of 10 cm and a depth of 10 cm was filled with soil and then seeded with ivyleaf morningglory and blackgrass. These test plants were grown in a greenhouse for 10 days. Then, each of the test compounds was formulated into an emulsifiable concentrate according to Formulation Example 2 and then diluted to the prescribed amount with water containing a spreading agent and the dilution was uniformly sprayed over the foliage of the test plants with a sprayer at a rate of 1000 liters per hectare. After the application, the test plants were grown in the greenhouse for 16 days, and the herbicidal activity was examined.

blackgrass [12] = test: Test Example 3: foliar treatment of field; type: in vivo, Alopecurus myosuroides; parameters: key: “0” means that there was no or little difference in the degree of germination or growth between the treated and the untreated tested plants at the time of examination; “10” means that the test plants died completely or their germination or growth was completely inhibited; settings: index 0 to 10, 16 days after application
Procedure: as §5

velvetleaf [13] = test: Test Example 4: soil surface treatment of field; type: in vivo, Abutilon theophrasti; parameters: key: “0” means that there was no or little difference in the degree of germination or growth between the treated and the untreated tested plants at the time of examination; “10” means that the test plants died completely or their germination or growth was completely inhibited; settings: index 0 to 10, 12 days after application
Text: as §4

| SMILES | herbicidal activity (germination of velvetleaf) (velvetleaf [1]) | herbicidal activity (germination of ivyleaf morningglory) (ivyleaf morningglory [2]) | herbicidal activity (germination of barnyardgrass) (barnyardgrass [3]) | herbicidal activity (germination of blackgrass) (blackgrass [4]) | herbicidal activity (growth of barnyardgrass) (barnyardgrass [5]) | herbicidal activity (growth of velvetleaf) (velvetleaf [6]) | herbicidal activity (growth of blackgrass) (blackgrass [7]) | Herbicidal activity Barnyard grass (barnyardgrass [8]; dosage 32 g/ha) | Herbicidal activity Barnyard grass (barnyardgrass [8]; dosage 125 g/ha) | Herbicidal activity Barnyard grass (barnyardgrass [8]; dosage 500 g/ha) | herbicidal activity (growth of ivyleaf morningglory) (ivyleaf morningglory [9]) | Herbicidal activity Giant foxtail (giant foxtail; dosage 32 g/ha) | Herbicidal activity Giant foxtail (giant foxtail; dosage 125 g/ha) | Herbicidal activity Giant foxtail (giant foxtail; dosage 500 g/ha) | Herbicidal activity Ivyleaf morningglory (ivyleaf morningglory [10]; dosage 32 g/ha) | Herbicidal activity Ivyleaf morningglory (ivyleaf morningglory [10]; dosage 125 g/ha) | Herbicidal activity Ivyleaf morningglory (ivyleaf morningglory [10]; dosage 500 g/ha) | Herbicidal activity Ivyleaf morningglory (ivyleaf morningglory [11]; dosage 8 g/ha) | Herbicidal activity Ivyleaf morningglory (ivyleaf morningglory [11]; dosage 32 g/ha) | Herbicidal activity Ivyleaf morningglory (ivyleaf morningglory [11]; dosage 125 g/ha) | further results |
| --- | --- | --- | --- | --- | --- | --- | --- | --- | --- | --- | --- | --- | --- | --- | --- | --- | --- | --- | --- | --- | --- |
| C=CCOC(=O)C1(Oc2cc(-n3c(=O)cc(C(F)(F)F)n(C)c3=O)c(F)cc2Cl)CC1 [Compound 1-7] | completely controlled | completely controlled | completely controlled | completely controlled | completely controlled | completely controlled | completely controlled | 6 | 10 | 10 | completely controlled | 10 | 10 | 10 | 2 | 10 | 10 | 10 | 10 | 10 | Herbicidal activity Blackgrass (blackgrass [12]; dosage 8 g/ha): 5; Herbicidal activity Blackgrass (blackgrass [12]; dosage 32 g/ha): 6; Herbicidal activity Blackgrass (blackgrass [12]; dosage 125 g/ha): 10; Herbicidal activity Velvet leaf (velvetleaf [13]; dosage 32 g/ha): 10; Herbicidal activity Velvet leaf (velvetleaf [13]; dosage 125 g/ha): 10; Herbicidal activity Velvet leaf (velvetleaf [13]; dosage 500 g/ha): 10 |
| CCOC(=O)C1(Oc2cc(-n3c(=O)cc(C(F)(F)F)n(C)c3=O)c(F)cc2Cl)CC1 [Compound 1-3, ethyl 1-[2-chloro-4-fluoro-5-{3-methyl-2,6-dioxo-4-(trifluoromethyl)-1,2,3,6-tetrahydropyrimidin-1-yl}phenoxy]cyclopropanecarboxylate] | completely controlled | completely controlled | completely controlled | completely controlled | completely controlled | completely controlled | completely controlled | – | – | – | completely controlled | – | – | – | – | – | – | – | – | – | – |
| COC(=O)C(CC(C)C)NC(=O)C1(Oc2cc(-n3c(=O)cc(C(F)(F)F)n(C)c3=O)c(F)cc2Cl)CC1 (stereo not shown) [Compound 1-28] | completely controlled | completely controlled | completely controlled | completely controlled | completely controlled | completely controlled | completely controlled | – | – | – | completely controlled | – | – | – | – | – | – | – | – | – | – |
| C=CCOC(=O)C(C)(C)Oc1cc(-n2c(=O)cc(C(F)(F)F)n(C)c2=O)c(F)cc1Cl [Comparative compound A, reference compound] | – | – | – | – | – | – | – | 1 | 7 | 10 | – | 4 | 10 | 10 | 0 | 4 | 8 | 7 | 10 | 10 | Herbicidal activity Blackgrass (blackgrass [12]; dosage 8 g/ha): 3; Herbicidal activity Blackgrass (blackgrass [12]; dosage 32 g/ha): 4; Herbicidal activity Blackgrass (blackgrass [12]; dosage 125 g/ha): 6; Herbicidal activity Velvet leaf (velvetleaf [13]; dosage 32 g/ha): 3; Herbicidal activity Velvet leaf (velvetleaf [13]; dosage 125 g/ha): 10; Herbicidal activity Velvet leaf (velvetleaf [13]; dosage 500 g/ha): 10 |
| COC(=O)C1(Oc2cc(-n3c(=O)cc(C(F)(F)F)n(C)c3=O)c(F)cc2Cl)CC1 [Compound 1-2, methyl 1-[2-chloro-4-fluoro-5-{3-methyl-2,6-dioxo-4-(trifluoro-methyl)-1,2,3,6-tetrahydropyrimidin-1-yl}phenoxy]cyclo-propanecarboxylate] | completely controlled | completely controlled | completely controlled | completely controlled | completely controlled | completely controlled | completely controlled | – | – | – | completely controlled | – | – | – | – | – | – | – | – | – | – |
| CSC(=O)C1(Oc2cc(-n3c(=O)cc(C(F)(F)F)n(C)c3=O)c(F)cc2Cl)CC1 [Compound 1-19] | completely controlled | completely controlled | completely controlled | completely controlled | completely controlled | completely controlled | completely controlled | – | – | – | completely controlled | – | – | – | – | – | – | – | – | – | – |
